Values quoted from earlier work, collected in US20110053172A1, “ONE STEP NANOSENSOR FOR SINGLE AND MULTIDRUG RESISTANCE IN ACUTE CORONARY SYNDROME (ACS)” (UNIVERSITY OF CALCUTTA, priority 2009, published 2011).

Conditions: in comparison to aspirin; P=0.043

COC(=O)[C@H](c1ccccc1Cl)N1CCc2sccc2C1 [clopidogrel]
relative risk reduction in stroke, myocardial infarction, or ischaemic death: 8.7%
